Test results reported in patent US20080234262A1 (Wyeth, priority 2007, published 2008).
Like-named read-outs stand apart in the source and are kept apart here.

Key:
[1] = target: PI3K (Homo sapiens, UniProt P42336); assay: Fluorescence polarization assay for PI3K; format: biochemical;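 note: PI3K kinase reaction on PIP2 with ATP, 30-60 min, product sensed by GST-GRP with red probe in fluorescence polarization (mP), controls without enzyme and at zero time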
[2] = system: prostate line LNCap; assay: In vitro cell culture growth assay (MTS), LNCap; format: cell-based, human; settings: LNCap cells, three days after drug treatment;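 note: viable cell density read by absorbance at 490 nm, growth expressed as percent of vehicle-treated cells on the same plate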
[3] = system: breast line MDA468; assay: In vitro cell culture growth assay (MTS), MDA468; format: cell-based, human; settings: MDA468 cells, three days after drug treatment
Outline: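 Steps: plate cells; add inhibitors the next day; incubate 3 days; add MTS dye, which viable cells convert metabolically; measure absorbance at 490 nm; calculate percent of control growth relative to vehicle-treated cells in the same plate.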

PI3K, sequence (P42336 whole entry): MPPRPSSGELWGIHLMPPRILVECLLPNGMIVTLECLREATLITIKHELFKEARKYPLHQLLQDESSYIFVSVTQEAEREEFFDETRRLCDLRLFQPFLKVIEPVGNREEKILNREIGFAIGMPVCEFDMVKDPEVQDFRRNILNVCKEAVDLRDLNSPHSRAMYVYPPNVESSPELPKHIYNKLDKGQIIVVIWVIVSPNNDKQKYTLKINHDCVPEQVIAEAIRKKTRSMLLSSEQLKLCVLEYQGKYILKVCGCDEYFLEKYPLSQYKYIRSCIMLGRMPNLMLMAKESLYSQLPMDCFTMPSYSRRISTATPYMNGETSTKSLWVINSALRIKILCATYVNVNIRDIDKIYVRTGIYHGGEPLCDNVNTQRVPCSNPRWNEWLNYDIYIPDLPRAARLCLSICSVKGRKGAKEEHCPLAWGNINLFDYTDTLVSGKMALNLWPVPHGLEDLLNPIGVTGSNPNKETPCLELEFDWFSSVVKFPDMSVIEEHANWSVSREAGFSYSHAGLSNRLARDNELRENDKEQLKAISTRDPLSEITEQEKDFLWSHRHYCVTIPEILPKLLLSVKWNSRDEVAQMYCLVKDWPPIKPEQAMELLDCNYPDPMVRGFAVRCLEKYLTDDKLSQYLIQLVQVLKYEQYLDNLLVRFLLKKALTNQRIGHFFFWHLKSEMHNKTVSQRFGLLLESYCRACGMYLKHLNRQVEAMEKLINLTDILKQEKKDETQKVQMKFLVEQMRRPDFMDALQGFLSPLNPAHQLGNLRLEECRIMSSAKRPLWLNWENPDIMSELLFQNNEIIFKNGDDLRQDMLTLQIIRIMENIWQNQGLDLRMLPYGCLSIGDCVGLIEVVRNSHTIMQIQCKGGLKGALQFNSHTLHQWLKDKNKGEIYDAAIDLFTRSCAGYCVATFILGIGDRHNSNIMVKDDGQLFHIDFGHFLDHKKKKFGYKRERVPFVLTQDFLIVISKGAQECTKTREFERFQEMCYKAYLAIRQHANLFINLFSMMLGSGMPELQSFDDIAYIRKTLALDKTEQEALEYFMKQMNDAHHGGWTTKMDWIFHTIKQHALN
PI3K, sequence (P27986 whole entry partner): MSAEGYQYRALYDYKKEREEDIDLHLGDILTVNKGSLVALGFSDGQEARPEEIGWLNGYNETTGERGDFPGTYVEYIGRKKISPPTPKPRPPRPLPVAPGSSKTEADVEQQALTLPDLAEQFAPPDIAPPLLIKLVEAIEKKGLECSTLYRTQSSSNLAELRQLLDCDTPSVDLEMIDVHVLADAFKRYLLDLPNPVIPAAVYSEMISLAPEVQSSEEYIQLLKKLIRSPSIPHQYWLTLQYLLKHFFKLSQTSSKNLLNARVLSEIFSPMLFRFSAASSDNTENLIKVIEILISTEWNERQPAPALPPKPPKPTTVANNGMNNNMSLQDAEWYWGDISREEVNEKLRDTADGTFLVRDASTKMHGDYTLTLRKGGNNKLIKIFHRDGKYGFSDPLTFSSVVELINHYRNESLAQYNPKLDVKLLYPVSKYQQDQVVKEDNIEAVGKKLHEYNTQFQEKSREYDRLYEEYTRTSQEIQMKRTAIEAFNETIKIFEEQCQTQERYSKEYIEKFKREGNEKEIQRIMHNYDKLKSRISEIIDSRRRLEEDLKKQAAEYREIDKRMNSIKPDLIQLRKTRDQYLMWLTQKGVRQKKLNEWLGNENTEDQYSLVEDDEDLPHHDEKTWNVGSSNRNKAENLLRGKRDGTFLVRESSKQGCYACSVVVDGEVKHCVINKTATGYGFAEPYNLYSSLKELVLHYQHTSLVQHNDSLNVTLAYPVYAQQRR

| IC50 ([1]; PI3Kα, read-out: PI3Kα IC50) | IC50 ([2]; Homo sapiens, LNCaP, 72 h) | IC50 [2] | SMILES | IC50 ([3]; Homo sapiens, 72 h) | IC50 [3] | IC50 ([1]; PI3Kα IC50, PI3Kα) | IC50 ([2]; Homo sapiens, 72 h) |
| --- | --- | --- | --- | --- | --- | --- | --- |
| 645 nM | 2300 nM | – | COC(=O)N1CCC(n2ncc3c(N4CCOCC4)nc(-c4ccc(NC(=O)OCCN(C)C)cc4)nc32)CC1 [Compound 904, methyl 4-{6-[4-({[2-(dimethylamino)ethoxy]carbonyl}amino)phenyl]-4-morpholin-4-yl-1H-pyrazolo[3,4-d]pyrimidin-1-yl}piperidine-1-carboxylate] | 7800 nM | – | – | – |
| 250 nM | 1400 nM | – | COC(=O)N1CCC(n2ncc3c(N4CCOCC4)nc(-c4ccc(NC(=O)OCCN5CCCC5)cc4)nc32)CC1 [Compound 905, methyl 4-[4-morpholin-4-yl-6-(4-{[(2-pyrrolidin-1-ylethoxy)carbonyl]amino}phenyl)-1H-pyrazolo[3,4-d]pyrimidin-1-yl]piperidine-1-carboxylate] | 4500 nM | – | – | – |
| 2040 nM | 5200 nM | – | COC(=O)N1CCC(n2ncc3c(N4CCOCC4)nc(-c4ccc(NC(=O)OCCN5CCOCC5)cc4)nc32)CC1 [Compound 906, methyl 4-[4-morpholin-4-yl-6-(4-{[(2-morpholin-4-ylethoxy)carbonyl]amino}phenyl)-1H-pyrazolo[3,4-d]pyrimidin-1-yl]piperidine-1-carboxylate] | 23000 nM | – | – | – |
| 1850 nM | 5500 nM | – | COC(=O)N1CCC(n2ncc3c(N4CCOCC4)nc(-c4ccc(NC(=O)OCCN5CCN(C)CC5)cc4)nc32)CC1 [Compound 907, methyl 4-{6-[4-({[2-(4-methylpiperazin-1-yl)ethoxy]carbonyl}amino)phenyl]-4-morpholin-4-yl-1H-pyrazolo[3,4-d]pyrimidin-1-yl}piperidine-1-carboxylate] | 7000 nM | – | – | – |
| > 10000 nM | 1300 nM | – | COC(=O)N1CCC(n2ncc3c(N4CCOCC4)nc(-c4ccc(NC(=O)OCC(F)(F)F)cc4)nc32)CC1 [Compound 908, methyl 4-[4-morpholin-4-yl-6-(4-{[(2,2,2-trifluoroethoxy)carbonyl]amino}phenyl)-1H-pyrazolo[3,4-d]pyrimidin-1-yl]piperidine-1-carboxylate] | 17000 nM | – | – | – |
| 7030 nM | 1200 nM | – | COC(=O)N1CCC(n2ncc3c(N4CCOCC4)nc(-c4ccc(NC(=O)OCCCO)cc4)nc32)CC1 [Compound 909, methyl 4-[6-(4-{[(3-hydroxypropoxy)carbonyl]amino}phenyl)-4-morpholin-4-yl-1H-pyrazolo[3,4-d]pyrimidin-1-yl]piperidine-1-carboxylate] | > 60000 nM | – | – | – |
| 118 nM | 0.8 nM | – | COC(=O)N1CCC(n2ncc3c(N4CCOCC4)nc(-c4ccc(NC(=O)Nc5ccc(N6CCOCC6)nc5)cc4)nc32)CC1 [Compound 911, methyl 4-[4-morpholin-4-yl-6-(4-{[(6-morpholin-4-ylpyridin-3-yl)carbamoyl]amino}phenyl)-1H-pyrazolo[3,4-d]pyrimidin-1-yl]piperidine-1-carboxylate] | 10 nM | – | – | – |
| 26 nM | 0.77 nM | – | COC(=O)N1CCC(n2ncc3c(N4CCOCC4)nc(-c4ccc(NC(=O)Nc5ccc(CCN6CCCCC6)cc5)cc4)nc32)CC1 [Compound 915, methyl 4-{4-morpholin-4-yl-6-[4-({[4-(2-piperidin-1-ylethyl)phenyl]carbamoyl}amino)phenyl]-1H-pyrazolo[3,4-d]pyrimidin-1-yl}piperidine-1-carboxylate] | 25 nM | – | – | – |
| 20 nM | 1.3 nM | – | COC(=O)N1CCC(n2ncc3c(N4CCOCC4)nc(-c4ccc(NC(=O)Nc5ccc(CCN6CCNCC6)cc5)cc4)nc32)CC1 [Compound 916, methyl 4-{4-morpholin-4-yl-6-[4-({[4-(2-piperazin-1-ylethyl)phenyl]carbamoyl}amino)phenyl]-1H-pyrazolo[3,4-d]pyrimidin-1-yl}piperidine-1-carboxylate] | 110 nM | – | – | – |
| 8 nM | 31 nM | – | COC(=O)N1CCC(n2ncc3c(N4CCOCC4)nc(-c4ccc(NC(=O)Nc5ccc(CCNCCN(C)C)cc5)cc4)nc32)CC1 [Compound 919, methyl 4-{6-[4-({[4-(2-{[2-(dimethylamino)ethyl]amino}ethyl)phenyl]carbamoyl}amino)phenyl]-4-morpholin-4-yl-1H-pyrazolo[3,4-d]pyrimidin-1-yl}piperidine-1-carboxylate] | 420 nM | – | – | – |
| 4 nM | 0.8 nM | – | COC(=O)N1CCC(n2ncc3c(N4CCOCC4)nc(-c4ccc(NC(=O)Nc5ccc(CCNCCN)cc5)cc4)nc32)CC1 [Compound 920, methyl 4-[6-(4-{[(4-{2-[(2-aminoethyl)amino]ethyl}phenyl)carbamoyl]amino}phenyl)-4-morpholin-4-yl-1H-pyrazolo[3,4-d]pyrimidin-1-yl]piperidine-1-carboxylate] | 300 nM | – | – | – |
| 12 nM | 1 nM | – | COC(=O)N1CCC(n2ncc3c(N4CCOCC4)nc(-c4ccc(NC(=O)Nc5ccc(CCNCCO)cc5)cc4)nc32)CC1 [Compound 921, methyl 4-[6-(4-{[(4-{2-[(2-hydroxyethyl)amino]ethyl}phenyl)carbamoyl]amino}phenyl)-4-morpholin-4-yl-1H-pyrazolo[3,4-d]pyrimidin-1-yl]piperidine-1-carboxylate] | 120 nM | – | – | – |
| 30 nM | < 0.8 nM | – | COCCNCCc1ccc(NC(=O)Nc2ccc(-c3nc(N4CCOCC4)c4cnn(C5CCN(C(=O)OC)CC5)c4n3)cc2)cc1 [Compound 922, methyl 4-[6-(4-{[(4-{2-[(2-methoxyethyl)amino]ethyl}phenyl)carbamoyl]amino}phenyl)-4-morpholin-4-yl-1H-pyrazolo[3,4-d]pyrimidin-1-yl]piperidine-1-carboxylate] | 90 nM | – | – | – |
| 737 nM | 110 nM | – | O=C(Nc1ccc(-c2nc(N3CCOCC3)c3cnn(C4CCN(CC(F)(F)F)CC4)c3n2)cc1)OCCO [Compound 923, 2-hydroxyethyl (4-{4-morpholin-4-yl-1-[1-(2,2,2-trifluoroethyl)piperidin-4-yl]-1H-pyrazolo[3,4-d]pyrimidin-6-yl}phenyl)carbamate] | 1200 nM | – | – | – |
| 442 nM | – | 3700 nM | CC(=O)Nc1ccc(-c2nc(N3CCOCC3)c3cn[nH]c3n2)cc1 [Compound 926, N-[4-(4-morpholin-4-yl-1H-pyrazolo[3,4-d]pyrimidin-6-yl)phenyl]acetamide] | – | 8500 nM | – | – |
| 2420 nM | – | 4200 nM | c1cc2cc(-c3nc(N4CCOCC4)c4cnn(C5CCCCO5)c4n3)ccc2[nH]1 (stereo not drawn) [Compound 928, 6-(1H-indol-5-yl)-4-morpholin-4-yl-1-(tetrahydro-2H-pyran-2-yl)-1H-pyrazolo[3,4-d]pyrimidine] | – | 1000 nM | – | – |
| 44 nM | 140 nM | – | CNC(=O)Nc1ccc(-c2nc(N3CCOCC3)c3cnn(C4CCOCC4)c3n2)cc1 [Compound 939, 1-methyl-3-{4-[4-morpholin-4-yl-1-(tetrahydro-2H-pyran-4-yl)-1H-pyrazolo[3,4-d]pyrimidin-6-yl]phenyl}urea] | 500 nM | – | – | – |
| 401 nM | 1950 nM | – | CNC(=O)Nc1ccc(-c2nc(N3CCOCC3)c3cn[nH]c3n2)cc1Cl [Compound 940, 1-[2-chloro-4-(4-morpholin-4-yl-1H-pyrazolo[3,4-d]pyrimidin-6-yl)phenyl]-3-methylurea] | 6000 nM | – | – | – |
| 3880 nM | 2000 nM | – | CNC(=O)Nc1ccc(-c2nc(N3C[C@@H](C)O[C@@H](C)C3)c3cnn(C4CCN(Cc5cccnc5)CC4)c3n2)cc1 [Compound 941, 1-(4-{4-[(2R,6S)-2,6-dimethylmorpholin-4-yl]-1-[1-(pyridin-3-ylmethyl)piperidin-4-yl]-1H-pyrazolo[3,4-d]pyrimidin-6-yl}phenyl)-3-methylurea] | 9000 nM | – | – | – |
| 1390 nM | 2800 nM | – | C[C@@H]1COCCN1c1nc(-c2cccc(O)c2)nc2c1cnn2-c1ccccc1 [Compound 942, 3-{4-[(3R)-3-methylmorpholin-4-yl]-1-phenyl-1H-pyrazolo[3,4-d]pyrimidin-6-yl}phenol] | 10200 nM | – | – | – |
| 276 nM | 1900 nM | – | CC1CN(c2nc(-c3cccc(O)c3)nc3c2cnn3-c2ccccc2)CCO1 (stereo not drawn) [Compound 943, 3-[4-(2-methylmorpholin-4-yl)-1-phenyl-1H-pyrazolo[3,4-d]pyrimidin-6-yl]phenol] | 7500 nM | – | – | – |
| 2660 nM | 900 nM | – | COC(=O)N1CCC(n2ncc3c(N4CCOCC4)nc(-c4ccc(O)cc4)nc32)CC1 [Compound 944, methyl 4-[6-(4-hydroxyphenyl)-4-morpholin-4-yl-1H-pyrazolo[3,4-d]pyrimidin-1-yl]piperidine-1-carboxylate] | 2100 nM | – | – | – |
| – | – | – | COC(=O)N1CCC(n2ncc3c(N4CCOCC4)nc(-c4ccc(NC(=O)Oc5ccccc5)cc4)nc32)CC1 [Compound 945, methyl 4-(4-morpholin-4-yl-6-{4-[(phenoxycarbonyl)amino]phenyl}-1H-pyrazolo[3,4-d]pyrimidin-1-yl)piperidine-1-carboxylate] | 20000 nM | – | > 10000 nM | 5000 nM |
| – | – | – | CNC(=O)Oc1ccc(-c2nc(N3CCOCC3)c3cnn(C4CCN(C(=O)OC)CC4)c3n2)cc1 [Compound 946, methyl 4-(6-{4-[(methylcarbamoyl)oxy]phenyl}-4-morpholin-4-yl-1H-pyrazolo[3,4-d]pyrimidin-1-yl)piperidine-1-carboxylate] | 7000 nM | – | 13000 nM | 1600 nM |
| 1600 nM | 980 nM | – | C=CC(=O)Nc1ccc(-c2nc(N3CCOCC3)c3cnn(C4CCN(C(=O)C(C)C)CC4)c3n2)cc1 [Compound 947, N-{4-[1-(1-isobutyrylpiperidin-4-yl)-4-morpholin-4-yl-1H-pyrazolo[3,4-d]pyrimidin-6-yl]phenyl}acrylamide] | 4800 nM | – | – | – |
